From patent publication US20230279002A1, “Polymorphs of Crystalline Forms of 3,10-dimethoxy-5,8,13,13a-tetrahydro-6H-isoquinolino[3,2-a]isoquinolin-9-yl 3-fluorobenzenesulfonate and Salts Thereof” (CVI Pharmaceuticals Limited, priority 2020, published 2023)
Where a name gives a salt, the structure may show the parent alone.

Columns and labels:
[1] = Solid stability at 40° C./0% RH (closed) and 40° C./75% RH (open), HPLC; type: physicochemical; conditions: for 0 day % remaining / 5 day % remaining / 10 day % remaining: solid
Experimental: (§1) Solid stability: 5 mg of 2a was weighed into scintillation vials sealed properly and stored at 40° C./0% RH(closed), 40° C./75% RH(open) under dark conditions to avoid the effect of light on stability. Samples were collected at day 0, 5 and 10 and analyzed by HPLC.
Solid stability: 5 mg of compound was weighed into vials sealed properly and stored at 40° C./0% RH (closed), 40° C./75% RH (open) under dark conditions to avoid the effect of light. Samples were analyzed by HPLC at days 0, 7, and 21.
as §1, with “stability of compound 1a:” for “stability:”, “compound were accurately” for “of 2a was”, “condition” for “conditions”, “should be” for “were”, “10 days” for “10”

[2] = Long term stability at 30° C./65% RH; type: physicochemical
serum PCSK9 = assay: Double-blind, randomized phase 1a study in healthy volunteers; type: in vivo, human; conditions: 10 days oral 300 mg QD, compared to baseline
Excerpt: (§2) Compound 1a has undergone a double-blind, randomized phase 1a study conducted in healthy volunteers. […] Currently, a phase 2 POC trial is underway in China in patients with hypercholesterolemia.

[3] = test system: serum LDL-C, TC, Apo B, and PCSK9; assay: Proof-of-mechanism phase 1b study in subjects with elevated LDL-C; type: in vivo, human; conditions: 28 days, compared with placebo cohort
Excerpt: as §2

[4] = Phase 1 studies, safety and tolerability in healthy volunteers and hyperlipidemic subjects; type: in vivo, human
Excerpt: as §2

[5] = TGA (Thermal Gravimetric Analysis) weight loss; type: physicochemical
Experimental: TGA (Thermal Gravimetric Analysis): Samples of compounds (4˜6 mg) were weighed into the pan, and heated under nitrogen purge using a ramp rate of 20° C./min over the range of 30° C.˜350° C.

[6] = Solubility of salts in water, SGF and FaSSIF at 25° C. for 24 hours (HPLC)
Experimental: (§3) About 5 mg of seven kinds of salts were weighed into each vial, and 2 mL of medium was added, respectively. The medium included water, SGF and FaSSIF. All samples were stirred at 25° C. for 24 hours.

physchem = conditions: 25 °C, thermodynamic from solid, Solubility (mg/mL)
Experimental: as §3

[7] = Medium: FaSSIF, 25° C., stirred 24 hours, HPLC
[8] = Medium: SGF, 25° C., stirred 24 hours, HPLC
[9] = Medium: Water, 25° C., stirred 24 hours, HPLC

In the case of `COc1ccc2c(c1)CCN1Cc3c(ccc(OC)c3OS(=O)(=O)c3cccc(F)c3)C[C@H]21` [Compound 1a, 3,10-dimethoxy-5,8,13,13a-tetrahydro-6H-isoquinolino[3,2-a]isoquinolin-9-yl 3-fluorobenzenesulfonate], the “Solid-state stability (HPLC)” value ([1]; 40° C./0% RH (closed) and 40° C./75% RH (open), dark, up to 10 days) was “substantially stable”, the “0 day % remaining” value ([1]; 40° C. (0% RH, closed)) was 99.65% and the “5 day % remaining” value ([1]; 40° C. (0% RH, closed)) was 101.65%. For the same molecule, the “10 day % remaining” value ([1]; 40° C. (0% RH, closed)) was 100.85%, the “0 day % remaining” value ([1]; 40° C./75% RH (open)) was 99.65% and the “5 day % remaining” value ([1]; 40° C./75% RH (open)) was 100.66%. For the same molecule, the “10 day % remaining” value ([1]; 40° C./75% RH (open)) was 101.31%, the “% Remaining” value ([2]; 1 month) was 100.30% and the “% Remaining” value ([2]; 3 month) was 100.00%. The “% Remaining” value ([2]; 6 month) was 99.30%, the “% Remaining” value ([2]; 12 month) was 99.60% and the “% Remaining” value ([2]; 18 month) was 99.20%. The “% Remaining” value ([2]; 24 month) was 99.50%, the “% Remaining” value ([2]; 36 month) was 100.40% and the “% Remaining” value ([2]; time 0) was 100.10%. For the same molecule, the Long term stability ([2]; up to 36 months) was “stable”, the “serum PCSK9 levels” value (serum PCSK9) was “significantly reduced” and the “serum Apo B” value [3] was “significantly reduced”. The “serum LDL-C” value [3] was “significantly reduced”, the “serum PCSK9 levels” value [3] was “significantly reduced” and the “serum TC” value [3] was “significantly reduced”. The safety profile [4] was “favorable safety profile” and the tolerability [4] was “well tolerated”.
In the case of `COc1ccc2c(c1)CCN1Cc3c(ccc(OC)c3OS(=O)(=O)c3cccc(F)c3)C[C@H]21` [besylate], the “TGA weight loss (from RT to 120° C.)” value [5] was 0.24%, the “TGA weight loss (in words)” value ([5]; room temperature to 120° C.) was “no significant weight loss” and the “solubility” value [6, 7] was 1 µg/mL. The “solubility” value [6, 8] was 214 µg/mL and the “solubility” value [6, 9] was 110 µg/mL.
For `COc1ccc2c(c1)CCN1Cc3c(ccc(OC)c3OS(=O)(=O)c3cccc(F)c3)C[C@H]21` [hydrobromide salt], the “TGA weight loss (from RT to 120° C.)” value [5] was 1.50%, the TGA weight loss ([5]; room temperature to 120° C.) was 1.50% and the “solubility” value [6, 7] was 2 µg/mL. The “solubility” value [6, 8] was 156 µg/mL and the “solubility” value [6, 9] was 163 µg/mL.
For `COc1ccc2c(c1)CCN1Cc3c(ccc(OC)c3OS(=O)(=O)c3cccc(F)c3)C[C@H]21` [maleate], the “TGA weight loss (from RT to 120° C.)” value [5] was 0.44%, the “TGA weight loss (in words)” value ([5]; room temperature to 120° C.) was “almost no obvious weight loss” and the “solubility” value [6, 7] was 1 µg/mL. For the same molecule, the “solubility” value [6, 8] was 221 µg/mL and the “solubility” value [6, 9] was 86 µg/mL.
With `COc1ccc2c(c1)CCN1Cc3c(ccc(OC)c3OS(=O)(=O)c3cccc(F)c3)C[C@H]21` [sulfate] the “TGA weight loss (from RT to 120° C.)” value [5] was 0.12%, the “TGA weight loss (in words)” value ([5]; room temperature to 120° C.) was “no weight loss” and the solubility at 24 h ([6]; FaSSIF, 25 °C, fassif, thermodynamic from solid, Solubility (mg/mL), Medium: FaSSIF, 25° C., stirred 24 hours, HPLC) was 2 µg/mL. For the same molecule, the “solubility” value [6, 8] was 496 µg/mL, the “solubility” value [6, 9] was 1370 µg/mL and the “Solubility compared with other polymorphs (summary)” value ([6]; summary of the Examples) was “generally more soluble than other polymorphs”. For the same molecule, the “Solubility compared with other salts” value ([6]; water and SGF, 25° C., 24 hours) was “better than that of other salts”.
For `COc1ccc2c(c1)CCN1Cc3c(ccc(OC)c3OS(=O)(=O)c3cccc(F)c3)C[C@H]21` [tosylate], the “TGA weight loss (from RT to 120° C.)” value [5] was 0.60%, the “TGA weight loss (in words)” value ([5]; room temperature to 120° C.) was “almost no significant weight loss” and the solubility at 24 h (physchem; fassif) was less than 1 µg/mL. The solubility at 24 h (physchem; simulated gastric fluid) was 399 µg/mL and the solubility at 24 h (physchem; water) was 411 µg/mL.
For hydrochloride, the “TGA weight loss (from RT to 120° C.)” value [5] was 0.09%.
